Test results: PubChem BioAssay (NCI)
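A five-concentration, 48-hour dose response in 96-well plates underlies each endpoint, interpolated linearly between surrounding concentrations. GI50 is the concentration that inhibits growth by half. TGI denotes the concentration required for complete inhibition of growth.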

Columns and labels:
Experiment in all cases: growth of human tumour cells (NCI), 48 h
MCF7 breast = test system: MCF7 breast
UACC-257 melanoma = test system: UACC-257 melanoma
SNB-75 CNS = test system: SNB-75 CNS
OVCAR-8 ovarian = test system: OVCAR-8 ovarian
A498 renal = test system: A498 renal
NCI/ADR-RES ovarian = test system: NCI/ADR-RES ovarian
SN12C renal = test system: SN12C renal
MOLT-4 leukemia = test system: MOLT-4 leukemia
SF-539 CNS = test system: SF-539 CNS
BT-549 breast = test system: BT-549 breast
HOP-62 NSCLC = test system: HOP-62 NSCLC
TK-10 renal = test system: TK-10 renal
MDA-MB-435 = test system: MDA-MB-435
HS 578T breast = test system: HS 578T breast
SW-620 colon = test system: SW-620 colon
MDA-N = test system: MDA-N
M14 melanoma = test system: M14 melanoma
MALME-3M melanoma = test system: MALME-3M melanoma
LOX IMVI melanoma = test system: LOX IMVI melanoma
SF-268 CNS = test system: SF-268 CNS
OVCAR-5 ovarian = test system: OVCAR-5 ovarian
CAKI-1 renal = test system: CAKI-1 renal
SK-OV-3 ovarian = test system: SK-OV-3 ovarian
EKVX NSCLC = test system: EKVX NSCLC
HOP-92 NSCLC = test system: HOP-92 NSCLC
SR leukemia = test system: SR leukemia
OVCAR-3 ovarian = test system: OVCAR-3 ovarian
HT29 colon = test system: HT29 colon
SK-MEL-5 melanoma = test system: SK-MEL-5 melanoma
A549 NSCLC = test system: A549 NSCLC
SNB-19 CNS = test system: SNB-19 CNS
CCRF-CEM leukemia = test system: CCRF-CEM leukemia
U251 CNS = test system: U251 CNS
PC-3 prostate = test system: PC-3 prostate
SF-295 CNS = test system: SF-295 CNS
SK-MEL-28 melanoma = test system: SK-MEL-28 melanoma
RPMI-8226 leukemia = test system: RPMI-8226 leukemia
T-47D breast = test system: T-47D breast
NCI-H23 lung = test system: NCI-H23 lung
786-0 renal = test system: 786-0 renal
HL-60(TB) leukemia = test system: HL-60(TB) leukemia
UO-31 renal = test system: UO-31 renal
MDA-MB-231 breast = test system: MDA-MB-231 breast
COLO 205 colon = test system: COLO 205 colon
DU-145 prostate = test system: DU-145 prostate
HCT-116 colon = test system: HCT-116 colon
HCT-15 colon = test system: HCT-15 colon
KM12 colon = test system: KM12 colon
NCI-H460 lung = test system: NCI-H460 lung
IGROV1 ovarian = test system: IGROV1 ovarian
ACHN renal = test system: ACHN renal

Compound `CN(C)Cc1cccc(CN(C)C)[c]1[Sn]([Br])([c]1ccccc1)[c]1ccccc1` has a GI50 (MCF7 breast) of 10.5 µM, a TGI (MCF7 breast) of 24.5 µM and a GI50 (UACC-257 melanoma) of 16 µM. For the same compound, the TGI (UACC-257 melanoma) was 53.7 µM, the GI50 (SNB-75 CNS) was 21.7 µM and the TGI (SNB-75 CNS) was 66.2 µM. For the same compound, the GI50 (OVCAR-8 ovarian) was 12.4 µM, the TGI (OVCAR-8 ovarian) was 26.2 µM and the GI50 (A498 renal) was 21.7 µM. For the same compound, the TGI (A498 renal) was 47.6 µM, the GI50 (NCI/ADR-RES ovarian) was 44 µM and the TGI (NCI/ADR-RES ovarian) was greater than 100 µM. For the same compound, the GI50 (SN12C renal) was 16.7 µM, the TGI (SN12C renal) was 35.6 µM and the GI50 (MOLT-4 leukemia) was 5.02 µM. It also gave a TGI (MOLT-4 leukemia) of 20.5 µM, a GI50 (SF-539 CNS) of 15.2 µM and a TGI (SF-539 CNS) of 30.3 µM. It also gave a GI50 (BT-549 breast) of 1.83 µM, a TGI (BT-549 breast) of 7.94 µM and a GI50 (HOP-62 NSCLC) of 17.2 µM. The TGI (HOP-62 NSCLC) was 39.5 µM, the GI50 (TK-10 renal) was 17.2 µM and the TGI (TK-10 renal) was 46.9 µM. For the same compound, the GI50 (MDA-MB-435) was 17.1 µM, the TGI (MDA-MB-435) was 41.6 µM and the GI50 (HS 578T breast) was 19.8 µM. It also gave a TGI (HS 578T breast) of 47 µM, a GI50 (SW-620 colon) of 13.5 µM and a TGI (SW-620 colon) of 29.7 µM. For the same compound, the GI50 (MDA-N) was 16.6 µM, the TGI (MDA-N) was 38.8 µM and the GI50 (M14 melanoma) was 15.9 µM. For the same compound, the TGI (M14 melanoma) was 30.6 µM, the GI50 (MALME-3M melanoma) was 12.6 µM and the TGI (MALME-3M melanoma) was 27.4 µM. For the same compound, the GI50 (LOX IMVI melanoma) was 6.25 µM, the TGI (LOX IMVI melanoma) was 20.3 µM and the GI50 (SF-268 CNS) was 3.77 µM. It also gave a TGI (SF-268 CNS) of 17.5 µM, a GI50 (OVCAR-5 ovarian) of 16.7 µM and a TGI (OVCAR-5 ovarian) of 32.5 µM. The GI50 (CAKI-1 renal) was 21.3 µM, the TGI (CAKI-1 renal) was 47.1 µM and the GI50 (SK-OV-3 ovarian) was 14.3 µM. The TGI (SK-OV-3 ovarian) was 30.6 µM, the GI50 (EKVX NSCLC) was 15.2 µM and the TGI (EKVX NSCLC) was 54.1 µM. It also gave a GI50 (HOP-92 NSCLC) of 2.15 µM, a TGI (HOP-92 NSCLC) of 9.74 µM and a GI50 (SR leukemia) of 2.36 µM. The TGI (SR leukemia) was 12 µM, the GI50 (OVCAR-3 ovarian) was 11.3 µM and the TGI (OVCAR-3 ovarian) was 24.3 µM. For the same compound, the GI50 (HT29 colon) was 8.18 µM, the TGI (HT29 colon) was 71.8 µM and the GI50 (SK-MEL-5 melanoma) was 11 µM. The TGI (SK-MEL-5 melanoma) was 24.7 µM, the GI50 (A549 NSCLC) was 17 µM and the TGI (A549 NSCLC) was 60.1 µM. It also gave a GI50 (SNB-19 CNS) of 18.7 µM, a TGI (SNB-19 CNS) of 48.4 µM and a GI50 (CCRF-CEM leukemia) of 5.45 µM. For the same compound, the TGI (CCRF-CEM leukemia) was greater than 100 µM, the GI50 (U251 CNS) was 3.71 µM and the TGI (U251 CNS) was 15.5 µM. It also gave a GI50 (PC-3 prostate) of 17.1 µM, a TGI (PC-3 prostate) of 96.9 µM and a GI50 (SF-295 CNS) of 14.8 µM. It also gave a TGI (SF-295 CNS) of 32.1 µM, a GI50 (SK-MEL-28 melanoma) of 14.5 µM and a TGI (SK-MEL-28 melanoma) of 35.2 µM. The GI50 (RPMI-8226 leukemia) was 2.29 µM, the TGI (RPMI-8226 leukemia) was 6.86 µM and the GI50 (T-47D breast) was 4.72 µM. It also gave a TGI (T-47D breast) of 21.5 µM, a GI50 (NCI-H23 lung) of 13.5 µM and a TGI (NCI-H23 lung) of 46.3 µM. For the same compound, the GI50 (786-0 renal) was 14.7 µM, the TGI (786-0 renal) was 29 µM and the GI50 (HL-60(TB) leukemia) was 1.76 µM. The TGI (HL-60(TB) leukemia) was 3.93 µM, the GI50 (UO-31 renal) was 13.1 µM and the TGI (UO-31 renal) was 26.8 µM. It also gave a GI50 (MDA-MB-231 breast) of 15.9 µM, a TGI (MDA-MB-231 breast) of 38.3 µM and a GI50 (COLO 205 colon) of 4.37 µM. For the same compound, the TGI (COLO 205 colon) was 17.9 µM, the GI50 (DU-145 prostate) was 20.2 µM and the TGI (DU-145 prostate) was 49.5 µM. The GI50 (HCT-116 colon) was 4.31 µM, the TGI (HCT-116 colon) was 17.3 µM and the GI50 (HCT-15 colon) was 14.5 µM. It also gave a TGI (HCT-15 colon) of 29.4 µM, a GI50 (KM12 colon) of 11 µM and a TGI (KM12 colon) of 28.1 µM. For the same compound, the GI50 (NCI-H460 lung) was 13.4 µM, the TGI (NCI-H460 lung) was 65.9 µM and the GI50 (IGROV1 ovarian) was 0.436 µM. It also gave a TGI (IGROV1 ovarian) of 4.52 µM, a GI50 (ACHN renal) of 19.1 µM and a TGI (ACHN renal) of 40.4 µM.
